Reference: patent US7199126B2, “Compositions and treatments for inhibiting kinase and/or HMG-CoA reductase” (Pharmix Corporation, priority 2004, dated 2007)

Target: T1, human recombinant p38α protein kinase (Homo sapiens, UniProt Q16539)
T1 construct: purchased UBI (Upstate Biotechnology Inc.) 14–251; host or cells: E. coli
Test: Human p38α MAP kinase inhibition assay (cell-free, phosphorylation of myelin basic protein)
Type: biochemical
Method: Candidate compound and/or vehicle was preincubated with 0.075 μg/mL enzyme in modified HEPES buffer pH 7.4 at 25° C. for 15 minutes. The reaction was initiated by addition of 100 μM ATP and allowed to proceed for another 60 minutes. The reaction was terminated by aspirating the solution. Phosphorylated MBP was detected by incubation with a mouse monoclonal IgG2a anti-phosphoMBP antibody. Bound anti-phosphoMBP antibody was quantitated by incubation with a HRP conjugated goat anti-mouse IgG.

T1 sequence (Q16539 whole entry): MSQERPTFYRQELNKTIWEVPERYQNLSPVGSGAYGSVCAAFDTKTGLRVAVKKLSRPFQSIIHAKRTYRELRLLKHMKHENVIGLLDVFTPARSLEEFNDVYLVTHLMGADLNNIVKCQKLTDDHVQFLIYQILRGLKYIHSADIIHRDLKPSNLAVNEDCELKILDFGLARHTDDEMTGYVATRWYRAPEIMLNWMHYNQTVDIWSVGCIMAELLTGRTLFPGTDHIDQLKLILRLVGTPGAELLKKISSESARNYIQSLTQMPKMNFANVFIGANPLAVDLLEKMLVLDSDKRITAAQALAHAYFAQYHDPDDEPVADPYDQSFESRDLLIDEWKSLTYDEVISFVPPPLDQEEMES

IC50: > 100 µM
Structure (SMILES): CCC(C)(C)C(=O)O[C@H]1C[C@@H](C)C=C2C=C[C@H](C)[C@H](CC[C@@H]3C[C@@H](O)CC(=O)O3)[C@H]21 [Simvastatin sodium]
